In the supplement of paper PMC12317010:
Counter-ions that a name gives are not always drawn.

Experiment: collision cross section in nitrogen (drift tube, single-field); higher = larger gas-phase ion size
[1] = ion type: [M-H], ion source: ESI, ion mode: Negative
[2] = ion type: [M+H], ion source: APCI, ion mode: Positive
[3] = ion type: [M+H], ion source: ESI, ion mode: Positive
[4] = ion type: [M+Na], ion source: ESI, ion mode: Positive
[5] = ion type: [M+], ion source: APCI, ion mode: Positive
[6] = ion source: ESI, ion mode: Positive, ion type: [M]+ (permanent cation)
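Note: chemical standards at 10 µM analysed by drift tube IMS-QTOF MS in about 3.95 torr nitrogen, mean of duplicate injections differing ≤1%, mass error below 10 ppm.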

Structure (SMILES)	collision cross section in nitrogen [1] [Å²]	collision cross section in nitrogen [2] [Å²]	collision cross section in nitrogen [3] [Å²]	collision cross section in nitrogen [4] [Å²]	also measured
C=CS(=O)(=O)O [Sodium ethenesulfonate]	113.6				
Cc1cc(Cl)ccc1N=CN(C)C [Chlordimeform hydrochloride]		146.2			
CC(C)(C)c1ccc(N)cc1 [4-tert-Butylaniline]		147.3	147.6		
Cc1cc(N=Nc2ccccc2C)ccc1N [o-Aminoazotoluene]	157.3	155.9	156		
O=C(Nc1cccc([N+](=O)[O-])c1)c1cc2ccccc2cc1O [3-Hydroxy-N-(3-nitrophenyl)naphthalene-2-carboxamide]	170.2				
CN(C)c1ccc(C(=O)c2ccc(N(C)C)cc2)cc1 [Bis(4-(dimethylamino)phenyl)methanone]		166.8	166.5	175.8	
S=C(NC1CCCCC1)NC1CCCCC1 [N,N'-Dicyclohexylthiourea]	165.7	163	162.9		
CN(C)CCC(c1ccc(Br)cc1)c1ccccn1 (stereo unspecified) [Brompheniramine hydrogen maleate]		167.1	167.8		
CC1COc2ccccc2N1 (stereo unspecified) [3-Methyl-3,4-dihydro-2H-1,4-benzoxazine]		130.4	131.2		
COc1cc(CCC(=O)CC(=O)CCc2ccc(O)c(OC)c2)ccc1O [Tetrahydrocurcumin]	184.8			181.2	
CCCCC(CC)COC(=O)/C=C\C(=O)OCC(CC)CCCC (stereo unspecified) [Bis(2-ethylhexyl) maleate]				207.2	
C=CCOCC(CC)(CO)CO [2-Allyloxymethyl-2-ethylpropanediol]				141.3	
COCCCOc1ccnc(CS(=O)c2nc3ccccc3[nH]2)c1C (stereo unspecified) [Rabeprazole sodium]		189.4		179.5	collision cross section in nitrogen [5]: 187.8 Å²
Oc1ccc(C(c2ccc(O)cc2)(C(F)(F)F)C(F)(F)F)cc1 [Bisphenol AF]	165.6				
CCCCCCCCCCCCCCCCCCOS(=O)(=O)O [Octadecyl sulfate sodium salt]	189.8				
CNC(=O)C(c1ccccc1)c1ccccc1 [N-methyl-alpha-phenylbenzeneacetamide]		153.4	152.9	162.2	
CCCCCCCC[N+](C)(C)Cc1ccccc1 [Benzalkonium chloride C8 (BAC C8)]					collision cross section in nitrogen (ion source: APCI, ion mode: Positive, ion type: [M]+ (permanent cation)): 170.1 Å²; collision cross section in nitrogen [6]: 171.3 Å²
CCc1ccc(C(=O)NN(C(=O)c2cc(C)cc(C)c2)C(C)(C)C)cc1 [Tebufenozide]	193.6			201.3	
CCOP(=S)(NC(C)C)Oc1ccccc1C(=O)OC(C)C (stereo unspecified) [Isofenphos]	173.7			184.2	

Structure (SMILES)	collision cross section in nitrogen [1] [Å²]	collision cross section in nitrogen [2] [Å²]	collision cross section in nitrogen [3] [Å²]	collision cross section in nitrogen [4] [Å²]	also measured
CCC(=O)Nc1cccc(N)c1 [N-(3-Aminophenyl)propanamide]	138.7	135.8	136.5		
CCCCCC/C=C\CCCCCCCC(=O)O [(Z)-Hexadec-9-enoic acid]	168.4				
CCOP(=S)(OCC)ON=C(C#N)c1ccccc1 [Phoxim]	165.7				
c1ccc2[nH]nnc2c1 [1,2,3-Benzotriazole]	118.9	120.7	122.2		
CCOc1ccc2c(c1)C(C)=CC(C)(C)N2 [Ethoxyquin]		153.1	153.2		
NCCOCCOCCN [2,2'-[Ethane-1,2-diylbis(oxy)]diethanamine]				132.4	
CCOC(=O)NCCC[Si](OCC)(OCC)OCC [Ethyl [3-(triethoxysilyl)propyl]carbamate]				171.4	
CCCCCC[C@@H](O)C/C=C\CCCCCCCC(=O)O [(9Z,12R)-12-Hydroxyoctadec-9-enoic acid]	178.6			189.7	
O=C(O)c1ccccc1C(=O)OC1CCCCC1 [Monocyclohexyl phthalate]	159.9			171.7	
O=C(OCc1ccccc1)c1ccc(O)cc1 [Benzyl 4-hydroxybenzoate]	158.5				
CCCC1O[C@@H]2C[C@H]3[C@@H]4CCC5=CC(=O)C=C[C@]5(C)[C@H]4[C@@H](O)C[C@]3(C)[C@]2(C(=O)CO)O1 (stereo partly specified) [Budesonide]	204.6			230.4	
Cc1c2ccccc2c(C)c2c1ccc1ccccc12 [7,12-Dimethylbenz[a]anthracene]					collision cross section in nitrogen [5]: 155.2 Å²
C=C(C)C(=O)NCCC[N+](C)(C)C					collision cross section in nitrogen [6]: 143.3 Å²
CC/C(=C(/CC)c1ccc(O)cc1)c1ccc(O)cc1 [Diethylstilbestrol]	176.2				
CC(=O)N1CCN(c2ccc(OC[C@H]3CO[C@](Cn4ccnc4)(c4ccc(Cl)cc4Cl)O3)cc2)CC1 [Ketoconazole]		217.3	216.8	225.3	
CC(C)(C)c1cccc(O)c1 [3-tert-Butylphenol]	136.9				
N=C(Nc1ccccc1)Nc1ccccc1 [1,3-Diphenylguanidine]		150.7	150.8		
O=C(CCCCCCCCc1cccnc1)N1CCC(C=C(c2ccccc2)c2ccccc2)CC1 [Ro 23-7637]		239.1	238	242.7	
C[C@]12CC[C@@H]3c4ccc(O)cc4C[C@@H](CCCCCCCCCS(=O)CCCC(F)(F)C(F)(F)F)[C@H]3[C@@H]1CC[C@@H]2O (stereo partly specified) [Fulvestrant]	246.5	243.5	242.9	247.6	

Structure (SMILES)	collision cross section in nitrogen [1] [Å²]	collision cross section in nitrogen [2] [Å²]	collision cross section in nitrogen [3] [Å²]	collision cross section in nitrogen [4] [Å²]	also measured
O=C(NC(=O)c1ccccc1Cl)Nc1ccc(OC(F)(F)F)cc1 [Triflumuron]	179.1			186.6	
NS(=O)(=O)C(F)(F)C(F)(F)C(F)(F)C(F)(F)C(F)(F)C(F)(F)C(F)(F)C(F)(F)F [Perfluorooctanesulfonamide]	170.4				
CCOP(=S)(OCC)SCS(=O)(=O)CC [Phorate sulfone]				162.8	
CCCCOC(=O)c1ccccc1C(=O)OCc1ccccc1 [Benzyl butyl phthalate]				178.3	
CCNc1nc(N)nc(Cl)n1 [Deisopropylatrazine]		133.5	133.7		
CC#C[C@]1(O)CC[C@H]2[C@@H]3CCC4=CC(=O)CCC4=C3[C@@H](c3ccc(N(C)C)cc3)C[C@@]21C [Mifepristone]	221.9		221.9	246.2	
O=C(COc1ccc(Cl)cc1)N1CCN(Cc2ccc3c(c2)OCO3)CC1 [Fipexide hydrochloride]		190.4	190.3	202.1	
O=C(NCc1cccnc1)Nc1ccc([N+](=O)[O-])cc1 [N-(4-Nitrophenyl)-N'-(3-pyridinylmethyl)urea]	165.3	174.7	174.3		
N=C(N)c1ccc(OCCCCCOc2ccc(C(=N)N)cc2)cc1 [Pentamidine isethionate]			177.4	183.2	
Oc1ccc(Cl)cc1Cl [2,4-Dichlorophenol]	123.6				
N[C@@H](CCC(=O)O)C(=O)O [L-Glutamic acid hydrochloride]	125.9				
CC(=O)CC(=O)Nc1ccc(C)cc1C [N-(2,4-Dimethylphenyl)-3-oxobutanamide]	148.8	147.7		160.6	
Nc1ccc(Oc2cccc(Oc3ccc(N)cc3)c2)cc1 [1,3-Phenylenedi(4-aminophenyl ether)]		167.2	168.2		collision cross section in nitrogen [5]: 177.7 Å²
CCNc1nc(NC(C)C(C)C)nc(SC)n1 (stereo unspecified) [Dimethametryn]	166.9	165.4	165		
CNC(=O)ON=C(C)C(C)S(C)(=O)=O (stereo unspecified) [Butoxycarboxim]				149.8	
C=CCOC(=O)c1ccc(C(=O)OCC=C)c(C(=O)OCC=C)c1 [Triallyl trimellitate]				189.3	
CCCCC(CC)C(=O)O (stereo unspecified) [2-Ethylhexanoic acid]	138.1				
O=C(NO)C1(NS(=O)(=O)c2ccc(Oc3ccc(F)cc3)cc2)CCOCC1	184.6			206.8	
CC(C)CCCCCCCOC(=O)c1ccccc1C(=O)OCCCCCCCC(C)C [Diisodecyl phthalate]				226.5	
